# Results reported in patent US11122826B2, “Organic compounds” (GIVAUDAN S.A., priority 2013, dated 2021).
# Assay: Taste evaluation by a panel of experienced tasters in Kikkoman low salt soy sauce
# Settings: 0.25 ppm dosed to Kikkoman low salt soy sauce (1 g salt/100 ml)
# Method: Blanco Verdunde Kikkoman low Salt 1 g Salt/100 ml
# The samples were evaluated by a panel of experienced tasters.
row,Structure (SMILES),taste of the sample as agreed by the panel
1,"CCCCCCCC/C=C\CCCCCCCC(=O)NC(C)(C)C(=O)O [2-methyl-2-oleamidopropanoic acid, 2-methyl-2-oleamidopropanoic Acid]","cleaner, more upfront body, salty, less fermented, more upfront, more salty bitter and sweet, fermented"
2,"CCCCCCCCCCCCCCCC(=O)NC(C)(C)C(=O)O [2-methyl-2-palmitamidopropanoic acid, 2-methyl-2-palmitamidopropanoic Acid]","strong salty, more upfront, fermented, slightly bitter and sweet"
3,"CCCCCCCCCCCCCCCCCC(=O)NC(C)(C)C(=O)O [2-methyl-2-stearamidopropanoic acid, 2-methyl-2-stearamidopropanoic Acid]","salty upfront, no aftertaste expanding, bitter aftertaste not negative, more upfront salty, not as bitter and sweet, fermented"
